Source: patent publication US20070014721A1, “Hydrazide conjugates as imaging agents” (priority 2005, published 2007)

What was measured:
[1] = tested on: Rabbit plaque aorta or normal rabbit aorta; experiment: Ex vivo blood vessel binding assay; set-up: species or system New Zealand white rabbits; conditions: radiolabeled compound incubated with rabbit aorta (0.5 cm) in phosphate buffered saline for 2 hours at 37° C; bound compound as percentage of the incubated compound
Text: Normal aorta was obtained from New Zealand white rabbits. Aorta bearing atherosclerotic plaque was obtained from New Zealand white rabbits balloon stripped along the abdominal aorta and placed on a high fat diet (0.5% cholesterol) for 16-22 weeks. Vascular injury was produced with a 3-F Fogarty catheter along the abdominal aorta and left iliofemoral artery. This procedure generates an accelerated complex lesion development with a lipid rich core covered by a fibrous cap in rabbits. Rabbit plaque aorta or normal rabbit aorta (0.5 cm) was incubated with 10 nCi of ^14C labeled compound or 1.5 μCi of ^99m Tc labeled compound or 0.135 μCi of ^111In labeled compound or 0.135 μCi of ^68Ga labeled compound or 0.135 µCi of ^153Gd labeled compound diluted in phosphate buffered saline (450 μL) for 2 hours at 37° C. The supernatant from this sample was collected and analyzed by HPLC to determine compound stability in presence of blood vessels. The blood vessel tissue was then washed with phosphate buffered saline (3×10 mL). Phosphate buffered saline (10 ml) was added to the tissue and incubated at 37° C. for 1 hour. The tissue was then washed with phosphate buffered saline (3×10 mL). The washed tissue was oxidized in a tissue oxidizer for C-14 labeled compounds. The counts in the oxidized tissue were determined on a beta counter. Blood vessels incubated with ^99m Tc labeled compound or ^111In labeled compound or ^68Ga labeled compound or ^153Gd labeled compound were counted on a gamma counter. The amount of compound bound to the tissue was determined as a percentage of the incubated compound. This was calculated using the following formula: [formula]

[2] = tested on: aorta of apolipoprotein E (apoE) knockout mouse; experiment: In vivo ApoE mouse aorta uptake study; conditions: 60 min postinjection; for Aorta (% ID/g): ApoE mouse on high-fat diet 37-41 weeks, tail vein bolus; for Aorta/Blood Ratio: ApoE mouse, calculated from the % ID/g data
Protocol: Mice were fed a high-fat diet to accelerate plaque formation and compounds were tested in the mice between 37-41 weeks on diet. Test compounds were radiolabeled (^14C, ^99mTc, or ^111In as described above) and administered at 0.02-4.0 mCi/kg to anesthetized mice in a single, bolus injection via the tail vein. Blood samples were collected via the tail between 0-30 minutes postinjection for pharmacokinetic analysis and mice were euthanized by CO2 at 60 minutes for tissue harvesting. The aorta were flushed with saline through the left ventricle exiting via the femoral vein. The aorta were then removed from the heart to the renal bifurcation and additional tissue samples collected (blood, muscle, liver, kidney, heart, lung, spleen and innominate artery). All samples were weighed and assayed for radioactivity. Tissue uptake is expressed as percent of injected dose per gram of tissue (% ID/g). The aorta to blood ratios were calculated from the % ID/g data.

| Compound | Aorta (% ID/g) [2] [% ID/g] | Aorta/Blood Ratio [2] | Tissue Binding % [1] [%] |
| --- | --- | --- | --- |
| CC(C)CC(NC(=O)OC(C)(C)C)C(=O)NNC(=O)NN (stereo not drawn) [Example 124, Boc-d-Leu-NHNH—CO—NHNH2] |  |  | 5.85 |
| CC(C)C[C@@H](NC(=O)OC(C)(C)C)C(=O)NCC(=O)NCCCCN [Example 140, Boc-d-Leu-Gly-NH-Butyl-NH2] | 1.3 | 0.8 | 0.52 |
| Boc-Aib-Ahxh-H [Example 130] |  |  | 3.33 |
| Boc-L-d-Leu-Ahxh-H [Example 150] | 2.1 | 1.2 | 5.36 |
| Boc-Leu-PABA-CO-d-Leu-Ahxh-H [Example 127] |  |  | 24.22 |
| Boc-cLeu-Ahxh-H [Example 133] | 5.7 | 2.9 | 9.10 |
| Boc-d-Ala-Ahxh-H [Example 134] |  |  | 5.72 |
| Boc-d-Aphe(ε-Leu(Boc))-Ahxh-H [Example 151] | 9.0 | 2.9 | 26.92 |
| Boc-d-Arg(Pmc)-Ahxh-H [Example 131] |  |  | 5.19 |
| Boc-d-Glu(tBu)-Ahxh-H [Example 132] |  |  | 2.47 |
| Boc-d-Leu-Ambh-H [Example 138] | 8.6 | 6.7 | 21.11 |
| Boc-d-Leu-Apah-H [Example 121] | 9.3 | 4.6 | 30.55 |
| Boc-d-Leu-N(Me)-NH-Ahx-H [Example 141] |  |  | 0.75 |
| Boc-d-Leu-N(Me)-NH-Ahx-NH2 [Example 126] | 1.3 | 0.6 | 2.97 |
| Boc-d-Leu-NHNH2 [Example 122] | 4.0 | 3.0 | 13.99 |
| Boc-d-Leu-NHNH—CO-(PEG)4-NH2 [Example 123] |  |  | 9.74 |
| Boc-d-Lys(e-Leu(Boc))-Ahxh-H [Example 136] |  |  | 9.15 |
| Boc-d-Phe-Ahxh-H [Example 129] | 8.1 | 3.3 | 14.42 |
| Boc-βLeu-Ahxh-H [Example 135] |  |  | 2.30 |
| H-Ahxh-d-Leu-Boc [Example 137] |  |  | 1.43 |
| H-d-Cha-Inph-DTPA [Example 197] |  |  | 6.97 |
| H-d-Cys(Bzl)-Ambh-DTPA [Example 179] |  |  | 9.67 |
| H-d-Leu-Apah-DOTA [Example 160] |  |  | 9.59 |
| H-d-Phe-Inph-DTPA [Example 199] |  |  | 3.36 |
| H-d-Pro-Ahxh-DTPA [Example 165] |  |  | 5.51 |
| H-d-Val-Ambh-DTPA [Example 198] |  |  | 5.26 |
| N,N-Me2-d-Leu-Ahxh-H [Example 125] |  |  | 4.63 |

Second part, led by results:

| Aorta (% ID/g) [2] [% ID/g] | Aorta/Blood Ratio [2] | Compound | Tissue Binding % [1] [%] |
| --- | --- | --- | --- |
| 3.8 | 2.1 | H-Aic-Ambh-DTPA [Example 207] | 5.26 |
| 6.5 | 0.9 | H-Pro-Ahxh-DTPA [Example 163] | 2.61 |
| 2.8 | 2.2 | H-cLeu-Ahxh-DTPA [Example 188] | 3.91 |
| 4.6 | 1.9 | H-cLeu-Ambh-DTPA [Example 195] | 9.52 |
| 12.6 | 10.8 | H-d-2-Nal-Ambh-DTPA [Example 212] | 18.78 |
| 6.2 | 3.0 | H-d-Aphe-Ahxh-DTPA [Example 193] | 8.69 |
| 7.9 | 5.9 | H-d-Bip-Ahxh-DTPA [Example 175] | 32.09 |
| 7.1 | 4.7 | H-d-Bip-NHNH-DTPA [Example 162] | 6.39 |
| 6.8 | 3.3 | H-d-Cha-Ahxh-DTPA [Example 194] | 16.33 |
| 9.8 | 7.8 | H-d-Cha-Ambh-DTPA [Example 196] | 8.25 |
| 7.0 | 5.4 | H-d-Cha-Apah-DTPA [Example 170] | 7.55 |
| 8.0 | 4.9 | H-d-Cys(Bzl)-Ahxh-DTPA [Example 167] | 9.74 |
| 9.5 | 5.8 | H-d-Cys(Bzl)-Apah-DTPA [Example 173] | 13.82 |
| 9.8 | 7.3 | H-d-Cys(Bzl)-Apph-DTPA [Example 181] | 13.91 |
| 11.2 | 8.1 | H-d-H2phe-Ambh-DTPA [Example 185] | 10.64 |
| 3.7 | 1.2 | H-d-His-Ahxh-DTPA [Example 172] | 4.22 |
| 7.5 | 5.8 | H-d-Hphe-Ahxh-DTPA [Example 168] | 9.17 |
| 9.9 | 3.9 | H-d-Hphe-Ambh-Ahx-DTPA [Example 211] | 18.09 |
| 8.3 | 13.2 | H-d-Hphe-Apph-DTPA [Example 180] | 18.24 |

| Aorta (% ID/g) [2] [% ID/g] | Aorta/Blood Ratio [2] | Compound | Tissue Binding % [1] [%] |
| --- | --- | --- | --- |
| 8.4 | 9.8 | H-d-Hphe-Pheh-AEEA-DTPA [Example 213] | 26.68 |
| 10.5 | 11.2 | H-d-Hphe-mAmbh-DTPA [Example 210] | 13.13 |
| 3.3 | 1.0 | H-d-Leu-NHNH-DTPA [Example 189] | 1.08 |
| 4.3 | 2.1 | H-d-Leu-XInph-DTPA [Example 201] | 2.94 |
| 5.1 | 2.2 | H-d-Nle-Ahxh-DTPA [Example 200] | 2.72 |
| 7.8 | 6.3 | H-d-Phe(4-NHBz)-Ambh-DTPA [Example 205] | 8.83 |
| 7.9 | 8.7 | H-d-Phe(CF3)-Apah-DTPA [Example 177] | 13.53 |
| 6.7 | 5.3 | H-d-Phe(F5)-Ambh-DTPA [Example 204] | 16.11 |
| 8.7 | 4.9 | H-d-Phe-Ambh-DTPA [Example 161] | 7.75 |
| 11.0 | 4.5 | H-d-Phe-Apph-Ahx-DTPA [Example 182] | 12.02 |
| 10.8 | 9.6 | H-d-Phe-Bbh-DTPA [Example 209] | 20.9 |
| 2.3 | 1.9 | H-d-Phe-NHNH-DTPA [Example 192] | 1.78 |
| 4.3 | 4.0 | H-d-Phe-XInph-DTPA [Example 202] | 5.44 |
| 4.0 | 3.3 | H-d-Ser(Bzl)-Ahxh-DTPA [Example 166] | 5.91 |
| 6.1 | 5.4 | H-d-Stya-Ambh-DTPA [Example 187] | 13.66 |
| 8.3 | 4.2 | H-d-Tic-Apah-DTPA [Example 178] | 6.00 |
| 12.5 | 11.3 | H-d-Trp-Apph-ETPA [Example 184] | 13.08 |
| 5.8 | 3.2 | H-d-Tyr(Bzl)-Ambh-DTPA [Example 206] | 19.62 |
| 6.1 | 5.1 | H-d-Tyr(Et)-Apah-DTPA [Example 169] | 13.53 |
